Values of other authors as cited in US20150044284A1, “DOSAGE FORM COMPRISING A STEROID 5-ALPHA-REDUCTASE INHIBITOR AND AN ALPHA BLOCKER, PROCESS FOR PREPARING OF A DOSAGE FORM, USE OF DOSAGE FORM, METHOD FOR THE TREATMENT OR PROPHYLAXIS OF A DISEASE OR CONDITION MEDIATED BY ANDROGEN” (EMS S.A., priority 2013, published 2015).

Tests used:
[1] = test system: DHT (dihydrotestosterone); settings: after only two weeks

## C[C@]12C=CC(=O)N[C@@H]1CC[C@@H]1[C@@H]2CC[C@]2(C)[C@@H](C(=O)Nc3cc(C(F)(F)F)ccc3C(F)(F)F)CC[C@@H]12 [dutasteride]
[1]
  Reduction of DHT levels: 90%
other
  Solubility in water: completely insoluble in water
